Measured values: article PMC8066339, “Optimization of 2-Acylaminocycloalkylthiophene Derivatives for Activity against Staphylococcus aureus RnpA” (Antibiotics, 2021)
“And” between values parts separate entries of the source, which are not always exact repeats. Equal values may be shown once. “Also recorded” adds a separate entry of the source. Read-outs that look alike come from different tables or passages of the source. One block for each molecule: values may come before it.

Experiments:
S. aureus strain UAMS-1 [1] = experiment: Minimum inhibitory concentration (MIC) testing, CLSI broth microdilution; assay type: cell-based, Staphylococcus aureus; settings: Staphylococcus aureus, UAMS1
Description: Staphylococcus aureus strains UAMS-1 is a well-characterized antibiotic susceptible osteomyelitis clinical isolate (Blevins Infect. Immun 2003). For experiments, UAMS-1 was cultured in Mueller Hinton (MH) broth and processed as described below. Escherichia coli strain BL21 (DE3) was cultured in Luria–Bertani (LB) and supplemented with ampicillin (50 µg ml^−1) where indicated.
Minimum inhibitory concentration (MIC) was performed according to the Clinical and Laboratory Standards Institute (CLSI) guidelines. Briefly, individual wells of a 96-well microtiter plate were inoculated with 10^4 colony forming units (CFU) of S. aureus UAMS-1 containing two-fold increasing concentrations (0 µM to 100 µM) of the indicated antibiotic or putative RnpA inhibitor and grown at 37 °C for 16 h in MH broth. The MIC was defined as the lowest concentration of compound in which there was no visible bacterial growth detected by the unaided eye.

S. aureus UAMS-1 = experiment: Fractional inhibitory concentration (FIC) testing with mupirocin; assay type: cell-based, Staphylococcus aureus; settings: Staphylococcus aureus
Description: Fractional inhibitory concentration (FIC) testing was performed, as previously described. Briefly, each well of a 96-well microtiter plate was inoculated with 10^4 CFU of S. aureus UAMS-1 [42]. Each row of the plate was supplemented with two-fold increasing concentrations of mupirocin (0 µg mL^−1 to 2 µg mL^−1) whereas each column contained two-fold increasing concentrations of putative RnpA inhibitor compound (0.03, 0.0625, 0.125, 0.25, 0.5, 1, or 2× MIC). […] The FIC index was defined by the following formula: FIC = (MIC of Drug A in Combination/MIC of Drug A Alone) + (MIC of Drug B in Combination/MIC of Drug B Alone). A synergistic interaction was defined as a FIC value of ≤0.5, an additive interaction as 0.5–1, no interaction as 1–4 and antagonistic interaction as FIC ≥ 4, as described.

S. aureus RnpA = target: T1, S. aureus RnpA (Staphylococcus aureus, UniProt P0A0H5); experiment: In vitro RnpA mRNA degradation assay (RNase Alert FRET substrate); assay type: biochemical
T1 construct: made in house; host or cells: E. coli BL21 (DE3)
T1 sequence (P0A0H5 1-117): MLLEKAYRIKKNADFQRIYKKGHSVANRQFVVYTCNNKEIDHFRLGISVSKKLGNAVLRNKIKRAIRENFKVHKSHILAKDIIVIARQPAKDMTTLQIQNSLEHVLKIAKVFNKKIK
Description: (§1) His-tagged RnpA was purified as previously described. E. coli BL21 (DE3) cells harboring plasmid pEXP5-nt containing a hexahistidine tag fused to the N-terminus of S.aureus RnpA coding region were grown in LB supplemented with 50 µg mL^−1 ampicillin to OD600 = 0.6 and induced with 1mM isopropyl β-D-1-thiogalactopyranoside (IPTG) for three hours to induce protein expression. […] Cells were mechanically lysed by three passes at 18,000 psi through a French Pressure Cell Press (SLM-Aminco; Pittsford, NY, USA) and cell debris was removed by centrifugation at 17,000× g for 10 min at 4 °C. Supernatants were collected, filtered through a 0.2 micron syringe filter, then loaded onto a 5 mL HisPur cobalt column (ThermoFisher Scientific, Waltham, MA, U.S.A.) using the BioRad Maximizer Duo-Flow Medium Pressure Chromatography System. Protein was eluted using an imidazole gradient (80 mM to 500 mM). Fractions were assessed for RnpA presence and purity via SDS-PAGE analysis, Coomassie staining and Western blotting using an anti-His antibody (Invitrogen; Grand Island, NY, USA).
RnpA-mediated degradation was assessed using the Rnase Alert QC System (Thermofisher Scientific). 20 pmol of His-RnpA was combined with 0.4 μM (final concentration) FRET substrate and either DMSO (negative control) or compound ≤500 µM in 1× Rnase Alert Buffer. Reactions were assembled in 96-well PCR plates (BioRad) and incubated at 37 °C for 30 min in the BioRad CFX 96 Connect Real Time instrument, measuring fluorescence every 2 min at 490 nm excitation/520 nm emission. Percent inhibition of each compound was calculated at the 30 min time-point based on the following formula: (RFU of compound treated RnpA/RFU of DMSO-treated RnpA) × 100.

RNase P (RnpA + rnpB) = target: T2, RNase P (RnpA + rnpB) (Staphylococcus aureus, UniProt P0A0H5); experiment: In vitro ptRNA^Tyr processing assay with reconstituted RNase P; assay type: biochemical; settings: for IC50: average of at least two tests
T2 construct: made in house; host or cells: E. coli BL21 (DE3)
T2 sequence (P0A0H5 1-117): T1 sequence (P0A0H5 1-117)
Description: as §1
rnpB and RNA substrates (spa, ptRNA^Tyr) for RnpA functional assays, as well as mature tRNA were synthesized in vitro, as previously described. Each gene was PCR amplified using S. aureus UAMS-1 chromosomal DNA as a template and the corresponding oligonucleotide primer pairs, in which the forward primers contained an RNA polymerase T7 promoter sequence. The following primer pairs were used in this study (T7 promoter underlined): T7-rnpB forward—[…] and rnpB reverse—[…]; T7-ptRNA^Tyr forward—[…] and ptRNA^Tyr reverse—TGGTGGAG GGGGGCAGATTC; T7-spa forward—[…] CGACGTCCAG and spa reverse—[…]. Resulting PCR products were analyzed on a 0.8% agarose gel and purified using the Qiagen QIAquick Gel Extraction kit, according to the manufacturer’s instructions. In vitro transcription was performed using the TranscriptAid T7 High Yield Transcription kit (Fermentas; Burlington, ON, Canada) following manufacturer’s instructions. Following in vitro transcription, the RNA was treated with DNase I for 90 min and re-purified using the Qiagen RNeasy Mini kit. RNA was quantified using a NanoDrop2000 spectrophotometer.
S.aureus Rnase P activity assays were performed as previously described. Briefly, ptRNA^Tyr and rnpB RNA was denatured by heating to 95 °C for 5 min then slow cooled to room temperature. RNA species were then combined with 2× low salt buffer (50 mM Tris-HCl pH 8.0, 5 mM MgCl2) and incubated for 5 min at 37 °C. Rnase P was reconstituted by mixing an equal molar ratio of His-RnpA and rnpB for 15 min at 37 °C. […] Then, 5 pmol ptRNA^Tyr was added to each reaction and incubated for an additional 30 min at 37 °C. Reactions were stopped with 2× RNA loading dye (Thermo Scientific) and heating to 65 °C for 10 min. Samples were electrophoresed on a 7M urea/8% polyacrylamide gel then stained with 0.5 µg mL^−1 ethidium bromide. The BioRad EZ Gel Doc imaging system was used to visualize the RNA and relative abundance of mature tRNA^Tyr in the DMSO control or in the samples containing compound and analyzed using BioRad Image Lab densitometry software. The percent inhibitory activity of each compound was calculated using the following equation: (% experimental processing/% processing negative control) × 100.

S. aureus = system: S. aureus; parameters: method as in PMID 21347352, PMID 25605356, PMID 31035380; settings: previously reported, Figure 1; cited from earlier work
S. aureus strain UAMS-1 [2] = system: S. aureus strain UAMS-1; parameters: method as in Colquhoun et al. [34]; settings: ref Colquhoun et al. [34]; cited from earlier work
MTT cytotoxicity testing = settings: human, HEP G2 cells (human liver epithelial cells)
Description: For the scaffold to have translational significance, it must be non-toxic to human cells. Accordingly, an initial assessment of toxicity was performed using human liver epithelial (HEP G2) cells via a 3-(4,5-dimethylthiazol-2-yl)-2,5-diphenyltetrazolium bromide (MTT) assay in the presence of up to 400 µM of each analog. […] Viability of 70% was used as the cut-off criteria for toxicity (Figure 4, dashed line), according to ISO guidelines, as described in Materials and Methods.
Human liver epithelial cells (HEP G2) were cultured in Dulbecco’s Modified Eagle Medium (DMEM; Fisher Scientific, Hampton, NH) supplemented with 10% heat inactivated fetal bovine serum (FBS; Corning Life Sciences) and 1% penicillin/streptomycin (Thermofisher Scientific). Cells were incubated at 37 °C with 5% CO2 in Nunc (Roskilde, Denmark) tissue culture flasks. Cells were grown in monolayers until exceeding 70% confluency, removed with 0.25% trypsin (Fisher Scientific), resuspended in fresh medium, and used to seed approximately 2.5 × 10^5 cells/mL into each well of a 96 well tissue culture microplate (Nunc) containing 200 µL of fresh medium. Cytotoxicity testing was conducted according to the guidelines of the International Organization for Standardization (ISO) 10993-5:2009. After 24 h of incubation, the cell media was removed, and adherent cells were washed with 1× phosphate buffered saline (PBS). Cell media was supplemented with 5% per volume of compound at final concentrations from 12.5 µM to 400 µM and incubated 20–24 h at 37 °C with 5% CO2. After incubation, medium supplemented with compound was removed from the wells and replaced with 100 µL of fresh culture medium. Then, 10 µL of 12 mM (3-(4,5-dimethylthiazol-2-yl)-2,5-diphenyltetrazolium bromide (MTT) stock reagent (CyQUANT MTT cell proliferation kit; Thermofisher Scientific) was added to each well. After labeling the cells with the MTT reagent, all but 25 µL of medium was removed from the wells, and 50 µL of DMSO was added to each well and mixed thoroughly and cells were incubated at 37 °C with 5% CO2 for 10 min. After incubation, wells were mixed again and using a SPECTRAmax5 microplate reader, absorbance was read at 540 nm. Cells were treated with 125 µg/mL mitomycin C (Fisher Scientific) to serve as a positive control and 2% DMSO as a negative control. […] All compounds were tested in two independent experiments in triplicate and cell viability was expressed as a percent of the negative control.

MIC (S. aureus strain UAMS-1 [1]; S. aureus strain UAMS-1, read-out: MIC): > 200 µg/mL
MIC (S. aureus UAMS-1; UAMS1, compound alone, read-out: Cpd MIC, Dosed-Individually): > 500 µM
Inhibition of in vitro RnpA-mediated RNA degradation (in words) (S. aureus RnpA): exhibited inhibitory activity
IC50 (S. aureus RnpA; in vitro RnpA-mediated RNA degradation, read-out: mRNA IC50): 43 µM
IC50 (RNase P (RnpA + rnpB); in vitro ptRNA^Tyr processing, read-out: ptRNA IC50): > 250 µM
SMILES: O=C(Nc1cccc(Cl)c1)c1c(NC(=O)C(F)F)sc2c1CCCCC2 [RNP0017]
Inhibition of in vitro RnpA ptRNA processing (in words) (RNase P (RnpA + rnpB)): did not appear to display any inhibition; also recorded: weak or no inhibitory activity

SMILES: CC1CCN(C(=O)Nc2cc(Cl)cc(Cl)c2)CC1 [JC1]
S. aureus MIC (S. aureus): 3.4 µM

SMILES: Cc1cc(/C=C(/C#N)C(=O)Nc2cccc(Br)c2)c(C)n1-c1ccc(C(=O)O)cc1 [RNP1000]
S. aureus MIC (S. aureus): 34 to 69 µM

SMILES: O=C(Nc1ccc(Cl)cc1)c1c(NC(=O)C(F)(F)F)sc2c1CCCCC2 [JR1]
S. aureus MIC (S. aureus): 1.25 µM
MIC (S. aureus strain UAMS-1 [2]): 1.25 µM and 0.52 µg/mL

SMILES: O=C(CF)Nc1sc2c(c1C(=O)Nc1cccc(Cl)c1)CCCCC2 [RNP0018]
MIC (S. aureus strain UAMS-1 [1]): > 200 µg/mL
MIC (S. aureus UAMS-1; UAMS1, read-out: Cpd MIC, Dosed-Individually): > 500 µM
IC50 (S. aureus RnpA): 33 µM
Inhibition of in vitro RnpA-mediated RNA degradation (in words) (S. aureus RnpA): good inhibitory properties; also recorded: exhibited inhibitory activity
Inhibition of in vitro RnpA ptRNA processing (in words) (RNase P (RnpA + rnpB)): good inhibitory properties
IC50 (RNase P (RnpA + rnpB); ptRNA IC50, in vitro ptRNA^Tyr processing): 58 µM

SMILES: CO[C@@]12[C@H](COC(N)=O)C3=C(C(=O)C(C)=C(N)C3=O)N1C[C@@H]1N[C@@H]12 [Mitomycin C, reference compound]
viability at 400 µM (MTT cytotoxicity testing): 54.8%

MIC (S. aureus UAMS-1; UAMS1, mupirocin alone, read-out: Mup MIC, Dosed-Individually): 0.5 µM
SMILES: C/C(=C\C(=O)OCCCCCCCCC(=O)O)C[C@@H]1OC[C@H](C[C@@H]2O[C@H]2[C@@H](C)[C@H](C)O)[C@@H](O)[C@H]1O [Mup, mupirocin, reference compound]
